Like-named read-outs stand apart in the source and are kept apart here.
Experiments:
[1] = target: T1, FKBP52 (Homo sapiens, UniProt Q02790); assay: Fluorescence polarization binding assay, FK1-domain of FKBP52WT with tracer F2 (selectivity FKBP51 vs. FKBP52); conditions: selectivity factor over FKBP52
T1 construct: Purified FK1-domains of FKBP51WT (4.5 nM) with F4 (3 nM), FKBP52WT (400 nM) with F2 (20 nM); implied by Ni-NTA purification) (N); made in house; host or cells: E. coli BL21(DE3)pLysS
T1 sequence (Q02790 50-138 limits assumed): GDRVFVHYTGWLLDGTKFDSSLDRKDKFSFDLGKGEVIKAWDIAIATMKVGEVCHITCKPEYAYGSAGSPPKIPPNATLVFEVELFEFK
Description: (§1) The target protein was also diluted in this assay buffer at double the highest concentration required for the final sample. This protein stock was used for a 1:1 serial dilution.
(§2) The inventive compound was dissolved in DMSO to reach a 100-times concentrated stock solution. This was used for a 1:1 serial dilution in DMSO.
(§3) For FKBP12, −51, and −52 the binding assays were performed in duplicates in the plate format.
(§4) The competition curves were analyzed by using SigmaPlot9. Data were fitted to a four parameter logistic curve to deduce the IC50 values. […] A=(Amax−Amin)/[L]t×(([L]t×((2×((Klig+Kcomp+[L]t+[I]t−[R]t)^2−3×(Kcomp×([L]t−[R]t)+Klig×([I]t−[R]t)+Klig×Kcomp))^0.5×COS(ARCCOS((−2×(Klig+Kcomp+[L]t+[I]t−[R]t)^3+9×(Klig+Kcomp+[L]t+[I]t−[R]t)×(Kcomp×([L]t−[R]t)+Klig×([I]t−[R]t)+Klig×Kcomp)−27×(−1×Klig×Kcomp×[R]t))/(2×((((Klig+Kcomp+[L]t+[I]t−[R]t)^2−3×(Kcomp×([L]t−[R]t)+Klig×([I]t−[R]t)+Klig×Kcomp))^3)^0.5)))/3))−(Klig+Kcomp+[L]t+[I]t−[R]t)))/((3×Klig)+((2×((Klig+Kcomp+[L]t+[I]t−[R]t)^2−3×(Kcomp×([L]t−[R]t)+Klig×([I]t−[R]t)+Klig×Kcomp))^0.5×COS(ARCCOS((−2×(Klig+Kcomp+[L]t+[I]t−[R]t)^3+9×(Klig+Kcomp+[L]t+[I]t−[R]t)×(Kcomp×([L]t−[R]t)+Klig×([I]t−[R]t)+Klig×Kcomp)−27×(−1×Klig×Kcomp×[R]t))/(2×((((Klig+Kcomp+[L]t+[I]t−[R]t)^2−3×(Kcomp×([L]t−[R]t)+Klig×([I]t−[R]t)+Klig×Kcomp))^3)^0.5)))/3))−(Klig+Kcomp+[L]t+[I]t−[R]t))))+Amin
(§5) In this equation Klig and Kcomp stand for the Kd values of the used tracer or competing inhibitor, [I]t is referring to the total concentration of the titrated inhibitor.
The Selectivity of the Compounds was Classified by Ki(FKBP51)/Ki(FKBP52)
(§6) Inhibition constants were measured in a fluorescence polarization binding assay by titrating the compounds.

[2] = target: T2, FKBP51 (Homo sapiens, UniProt Q13451); assay: Fluorescence polarization binding assay, FK1-domain of FKBP51WT with tracer F4; set-up: Purified FK1-domains of FKBP51WT (4.5 nM) with F4 (3 nM), FKBP52WT (400 nM) with F2 (20 nM); made in house; host or cells: E. coli BL21(DE3)pLysS; conditions: read-out: Affinity(Ki) for FKBP51
T2 sequence (Q13451 42-130 limits assumed): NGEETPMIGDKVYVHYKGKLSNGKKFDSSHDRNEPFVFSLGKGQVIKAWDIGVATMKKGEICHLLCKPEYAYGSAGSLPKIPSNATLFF
Description: as §1, §2, §3, §4, §5, §6

[3] = FKBP52WT (400 nM) with F2 (20 nM), A series
[4] = FK1-domain of FKBP51WT (4.5 nM) with F4 (3 nM), A series

| SMILES | Ki(FKBP51)/Ki(FKBP52) [1, 3] | Ki [2, 4] | Ki(FKBP51)/Ki(FKBP52) ([1]; compounds B01-C25) | Ki ([2]; compounds B01-C25) |
| --- | --- | --- | --- | --- |
| COc1ccc(CCC(OC(=O)[C@@H]2CCCCN2C(=O)C(NC(=O)c2ccccc2O)C2CCCCC2)c2cccc(OCC(=O)O)c2)cc1OC (stereo partly drawn) [Compound A24, 2-(3-(1-(((2S)-1-(2-cyclohexyl-2-(2-hydroxybenzamido)acetyl)piperidine-2-carbonyl)oxy)-3-(3,4-dimethoxyphenyl)propyl)phenoxy)acetic acid] | + (>5 +) | 10 to 50 µM |  |  |
| COc1ccc(CCC(OC(=O)[C@@H]2CCCCN2C(=O)C(NC(=O)c2ccccn2)C2CCCCC2)c2cccc(OCC(=O)O)c2)cc1OC (stereo partly drawn) [Compound A25, 2-(3-(1-(((2S)-1-(2-cyclohexyl-2-(picolinamido)acetyl)piperidine-2-carbonyl)oxy)-3-(3,4-dimethoxyphenyl)propyl)phenoxy) acetic acid] | + (>5 +) | 10 to 50 µM |  |  |
| COc1ccc(CCC(OC(=O)[C@@H]2CCCCN2C(=O)C(NC(=O)C2CCCCC2)C2CCCCC2)c2cccc(OCC(=O)O)c2)cc1OC (stereo partly drawn) [Compound A26, 2-(3-(1-(((2S)-1-(2-(cyclohexanecarboxamido)-2-cyclohexylacetyl)piperidine-2-carbonyl)oxy)-3-(3,4-dimethoxyphenyl)propyl)phenoxy)acetic acid] | + (>5 +) | 10 to 50 µM |  |  |
| COc1ccc(CCC(OC(=O)[C@@H]2CCCCN2C(=O)C(NC(=O)C2N=CN=N2)C2CCCCC2)c2cccc(OCC(=O)O)c2)cc1OC (stereo partly drawn) [Compound A27, 2-(3-(1-(((2S)-1-(2-cyclohexyl-2-(3H-1,2,4-triazole-3-carboxamido)acetyl)piperidine-2-carbonyl)oxy)-3-(3,4-dimethoxyphenyl)propyl)phenoxy)acetic acid] | + (>5 +) | 10 to 50 µM |  |  |
| COc1ccc(CCC(OC(=O)[C@@H]2CCCCN2C(=O)C(NC(=O)c2cc(Cl)cc(Cl)c2)C2CCCCC2)c2cccc(OCC(=O)O)c2)cc1OC (stereo partly drawn) [Compound A28, 2-(3-(1-(((2S)-1-(2-cyclohexyl-2-(3,5-dichlorobenzamido)acetyl)piperidine-2-carbonyl)oxy)-3-(3,4-dimethoxyphenyl)propyl)phenoxy)acetic acid] | + (>5 +) | 10 to 50 µM |  |  |
| COc1ccc(CC[C@@H](OC(=O)[C@@H]2CCCCN2C(=O)[C@H](c2cccc(F)c2)C2CCCCC2)c2cccc(OCC(=O)O)c2)cc1OC [Compound A36, 2-(3-((R)-1-(((S)-1-((S)-2-cyclohexyl-2-(3-fluorophenyl)acetyl)piperidine-2-carbonyl)oxy)-3-(3,4-dimethoxyphenyl)propyl)phenoxy)acetic acid] | +++ (>500 +++) | 1 to 10 µM |  |  |
| COc1cc([C@@H](C(=O)N2CCCC[C@H]2C(=O)N[C@@H](C)C(N)=O)C2CCCCC2)cc(OC)c1OC [Compound B01, (S)-N-((S)-1-amino-1-oxopropan-2-yl)-1-((S)-2-cyclohexyl-2-(3,4,5-trimethoxyphenyl)acetyl)piperidine-2-carboxamide] |  |  | ++ (>50 ++) | 1 to 10 µM |
| COc1cc([C@@H](C(=O)N2CCCC[C@H]2C(=O)N[C@H](C)C(N)=O)C2CCCCC2)cc(OC)c1OC [Compound B02, (S)-N-((R)-1-amino-1-oxopropan-2-yl)-1-((S)-2-cyclohexyl-2-(3,4,5-trimethoxyphenyl)acetyl)piperidine-2-carboxamide] |  |  | ++ (>50 ++) | 1 to 10 µM |
| COc1cc([C@@H](C(=O)N2CCCC[C@H]2C(=O)N[C@H](C(N)=O)C(C)C)C2CCCCC2)cc(OC)c1OC [Compound B03, (S)-N-((S)-1-amino-3-methyl-1-oxobutan-2-yl)-1-((S)-2-cyclohexyl-2-(3,4,5-trimethoxyphenyl)acetyl)piperidine-2-carboxamide] |  |  | + (>5 +) | 10 to 50 µM |
| COc1cc([C@@H](C(=O)N2CCCC[C@H]2C(=O)N[C@@H](C(N)=O)C(C)C)C2CCCCC2)cc(OC)c1OC [Compound B04, (S)-N-((R)-1-amino-3-methyl-1-oxobutan-2-yl)-1-((S)-2-cyclohexyl-2-(3,4,5-trimethoxyphenyl)acetyl)piperidine-2-carboxamide] |  |  | + (>5 +) | 1 to 10 µM |
| COc1cc([C@@H](C(=O)N2CCCC[C@H]2C(=O)N[C@@H](CCc2ccccc2)C(N)=O)C2CCCCC2)cc(OC)c1OC [Compound B08, (S)-N-((S)-1-amino-1-oxo-4-phenylbutan-2-yl)-1-((S)-2-cyclohexyl-2-(3,4,5-trimethoxyphenyl)acetyl)piperidine-2-carboxamide] |  |  | ++ (>50 ++) | 1 to 10 µM |
| COc1cc([C@@H](C(=O)N2CCCC[C@H]2C(=O)NC(C)(C)C(N)=O)C2CCCCC2)cc(OC)c1OC [Compound B11, (S)-N-(1-amino-2-methyl-1-oxopropan-2-yl)-1-((S)-2-cyclohexyl-2-(3,4,5-trimethoxyphenyl)acetyl)piperidine-2-carboxamide] |  |  | +++ (>500 +++) | 1 to 10 µM |

Continued, values first:

| Ki(FKBP51)/Ki(FKBP52) [1, 3] | Ki [2, 4] | Ki(FKBP51)/Ki(FKBP52) ([1]; compounds B01-C25) | Ki ([2]; compounds B01-C25) | SMILES |
| --- | --- | --- | --- | --- |
|  |  | ++ (>50 ++) | 1 to 10 µM | COc1cc([C@@H](C(=O)N2CCCC[C@H]2C(=O)N[C@@H](Cc2ccccc2)C(N)=O)C2CCCCC2)cc(OC)c1OC [Compound B05, (S)-N-((S)-1-amino-1-oxo-3-phenylpropan-2-yl)-1-((S)-2-cyclohexyl-2-(3,4,5-trimethoxyphenyl)acetyl)piperidine-2-carboxamide] |
|  |  | ++ (>50 ++) | 1 to 10 µM | COc1cc([C@@H](C(=O)N2CCCC[C@H]2C(=O)N[C@H](Cc2ccccc2)C(N)=O)C2CCCCC2)cc(OC)c1OC [Compound B06, (S)-N-((R)-1-amino-1-oxo-3-phenylpropan-2-yl)-1-((S)-2-cyclohexyl-2-(3,4,5-trimethoxyphenyl)acetyl)piperidine-2-carboxamide] |
|  |  | + (>5 +) | 10 to 50 µM | COc1cc([C@@H](C(=O)N2CCCC[C@H]2C(=O)N[C@@H](CC2CCCCC2)C(N)=O)C2CCCCC2)cc(OC)c1OC [Compound B07, (S)-N-((S)-1-amino-3-cyclohexyl-1-oxopropan-2-yl)-1-((S)-2-cyclohexyl-2-(3,4,5-trimethoxyphenyl)acetyl)piperidine-2-carboxamide] |
|  |  | ++ (>50 ++) | 10 to 50 µM | COc1cc([C@@H](C(=O)N2CCCC[C@H]2C(=O)N[C@@H](CCC2CCCCC2)C(N)=O)C2CCCCC2)cc(OC)c1OC [Compound B09, (S)-N-((S)-1-amino-4-cyclohexyl-1-oxobutan-2-yl)-1-((S)-2-cyclohexyl-2-(3,4,5-trimethoxyphenyl)acetyl)piperidine-2-carboxamide] |
|  |  | + (>5 +) | 10 to 50 µM | COc1cc([C@@H](C(=O)N2CCCC[C@H]2C(=O)NCC(N)=O)C2CCCCC2)cc(OC)c1OC [Compound B10, (S)-N-(2-amino-2-oxoethyl)-1-((S)-2-cyclohexyl-2-(3,4,5-trimethoxyphenyl)acetyl)piperidine-2-carboxamide] |
|  |  | ++ (>50 ++) | 1 to 10 µM | CC[C@H](NC(=O)[C@@H]1CCCCN1C(=O)[C@H](c1cc(OC)c(OC)c(OC)c1)C1CCCCC1)C(N)=O [Compound B12, (S)-N-((S)-1-amino-1-oxobutan-2-yl)-1-((S)-2-cyclohexyl-2-(3,4,5-trimethoxyphenyl)acetyl)piperidine-2-carboxamide] |
|  |  | ++ (>50 ++) | 1 to 10 µM | CC[C@@H](NC(=O)[C@@H]1CCCCN1C(=O)[C@H](c1cc(OC)c(OC)c(OC)c1)C1CCCCC1)C(N)=O [Compound B13, (S)-N-((R)-1-amino-1-oxobutan-2-yl)-1-((S)-2-cyclohexyl-2-(3,4,5-trimethoxyphenyl)acetyl)piperidine-2-carboxamide] |
